Read-outs that look alike come from different tables or passages of the source.
Tests used:
[1] = test system: ATCC strain 43300 Staphylococcus aureus; type: cell-based
[2] = room temperature; cited from earlier work
[3] = test system: ATCC strain 43300 Staphylococcus aureus; experiment: Survival of MRSA in MSM alone, 24 and 48 hours (USP<51> Antimicrobial Effectiveness template); settings: 5-16% MSM alone, 24 or 48 hour time point
Method: USP<51> Antimicrobial Effectiveness protocol was used as the template experimental paradigm. […] All concentrations were plated out to the 10^−7 dilutionsto ascertain cfu/ml.
Material was calculated on a 10 ml volume.
All tubes were inoculated with a dilution of MRSA giving a final level of colony forming units of 2.0×10^5/ml (Log=5.23). The tubes were incubated at 25° C. and mixed periodically. Plating was done at 24 and 48 hours. Each condition was plated by diluting 1 ml of growth material into 9 ml of MLB diluent broth. This mixture was serial diluted down to 10^−7, and 1 ml placed in a sterile petri dish at each dilution point. 20 mls of TSA was added to each dilution, swirled and allowed to solidify. All dilutions were placed in a 35° C. incubator for 24 hours. Bacterial colonies on each plate were counted and colony counts changed into log format. A positive and negative control was ascertained.

[4] = test system: ATCC strain 43300 Staphylococcus aureus; settings: for average log reduction in cfu/ml: 48 hours; for Log reduction in cfu/ml: 120 hours
Method: This is the MIC for oxacillin and methicillin for this strain of bacteria.
USP<51> Antimicrobial Effectiveness protocol was used as the template experimental paradigm. […] All concentrations were plated out to the 10^−7 dilutionsto ascertain cfu/ml. […] This concentration is the industry standard for determining MRSA resistance in clinical applications.
Material was calculated on a 10 ml volume. Sterile oxacillin or methicillin was added to each experimental condition daily at 300 μl from a 30 mg/10 ml concentration giving it an initial final concentration of 6 μg/ml.
All tubes were inoculated with a dilution of MRSA giving a final level of colony forming units of 2.13×10^6/ml (Log=6.3). The tubes were incubated at 25° C. and mixed periodically. Plating was done at 24 hours, 48 hours and 5 days. Each condition was plated by diluting 1 ml of growth material into 9 ml of MLB diluent broth. This mixture was serial diluted down to 10^−7, and 1 ml placed in a sterile petri dish at each dilution point. 20 mls of TSA was added to each dilution, swirled and allowed to solidify. All dilutions were placed in a 35° C. incubator for 24 hours. Bacterial colonies on each plate were counted and colony counts changed into log format. A positive and negative control was ascertained.

CS(C)(=O)=O [MSM, methylsulfonylmethane]
recovery of MRSA after enrichment ([1]; 5% MSM, 60 μg/ml methicillin, 72 hours): true total kill | recovery of MRSA after enrichment ([1]; 6% MSM, 12 μg/ml methicillin, 72 hours): true total kill | recovery of MRSA after enrichment ([1]; 6% MSM, 60 μg/ml methicillin, 72 hours): true total kill | recovery of MRSA after enrichment ([1]; 7% MSM, 12 μg/ml methicillin, 72 hours): true total kill | recovery of MRSA after enrichment ([1]; 8% MSM, 12 μg/ml methicillin, 96 hours): true total kill | recovery of MRSA after enrichment ([1]; 10% MSM, 30 μg/ml methicillin, 120 hours): true total kill | recovery of MRSA after enrichment ([1]; 11% MSM, 30 μg/ml methicillin, 120 hours): true total kill | recovery of MRSA after enrichment ([1]; 11% MSM, 60 μg/ml methicillin, 120 hours): true total kill | recovery of MRSA after enrichment ([1]; 12% MSM, 30 μg/ml methicillin, 120 hours): true total kill | recovery of MRSA after enrichment ([1]; 12% MSM, 60 μg/ml methicillin, 120 hours): true total kill | recovery of MRSA after enrichment ([1]; 14% MSM, 60 μg/ml methicillin, 120 hours): true total kill | recovery of MRSA after enrichment ([1]; 15% MSM, 60 μg/ml methicillin, 120 hours): true total kill | recovery of MRSA after enrichment ([1]; 16% MSM, 30 μg/ml methicillin, 120 hours): true total kill | water solubility [2]: ≥ 20% | effect on survival [3]: none of the concentrations of MSM tested had any effect on the survival | average log reduction in cfu/ml ([4]; initial 5% MSM, 6 μg/ml methicillin): 2.7 log | average log reduction in cfu/ml ([4]; initial 8% MSM, 6 μg/ml oxacillin): 2.7 log | Log reduction in cfu/ml ([4]; initial 13-16% MSM, 6 μg/ml methicillin): ~3.5 log | Log reduction in cfu/ml ([4]; initial 14-16% MSM, 6 μg/ml oxacillin): ~3.3 log | average log reduction in cfu/ml ([4]; initial 16% MSM, 6 μg/ml methicillin): 2.1 log | average log reduction in cfu/ml ([4]; initial 16% MSM, 6 μg/ml oxacillin): 2.1 log
